Assay results from ChEMBL document CHEMBL5576126, “Discovery of Novel, Selective, and Nonbasic Agonists for the Kappa-Opioid Receptor Determined by Salvinorin A-Based Virtual Screening” (J Med Chem, 2024).
Active and inactive are the calls of the source. The rule behind the calls is not given here.

What was measured:
[1] = target: Kappa-type opioid receptor (Homo sapiens) (UniProt P41145); experiment: Agonist activity at human Kappa-opioid receptor expressed in human U2OS cells co-expressing enzyme acceptor tagged beta-arrestin2 fusion protein assessed as increase in beta-arrestin2 recruitment at 10 uM incubated for 180 mins by DiscoverX pathHunter express beta-arrestin2 assay; format: functional, cell-based
[2] = target: Delta-type opioid receptor (Homo sapiens) (UniProt P41143); experiment: Binding affinity to human Delta-opioid receptor expressed in CHO cell membrane assessed as inhibition of [3H]DPDPE binding to DOR at 10 uM incubated for 60 mins by radioligand binding assay; format: cell membranes
[3] = target: Kappa-type opioid receptor (Homo sapiens) (UniProt P41145); experiment: Binding affinity to human Kappa-opioid receptor expressed in CHO cell membrane assessed as inhibition of [3H]-U69593 binding to KOR incubated for 60 mins by radioligand binding assay; format: cell membranes
[4] = target: Kappa-type opioid receptor (Homo sapiens) (UniProt P41145); experiment: Agonist activity at human Kappa-opioid receptor expressed in CHO cell membrane assessed as induction of [35S]GTPgammaS binding by measuring G protein activation incubated for 60 mins by liquid scintillation counting assay; format: functional, cell membranes
[5] = target: Kappa-type opioid receptor (Homo sapiens) (UniProt P41145); experiment: Potency index, ratio of SalA-VS-07 Ki to test compound Ki for Binding affinity to human Kappa-opioid receptor expressed in CHO cell membrane assessed as inhibition of [3H]-U69593 binding to KOR; format: cell membranes; conditions: filed as agonist

Chain of Delta-type opioid receptor (Homo sapiens) (P41143 whole entry): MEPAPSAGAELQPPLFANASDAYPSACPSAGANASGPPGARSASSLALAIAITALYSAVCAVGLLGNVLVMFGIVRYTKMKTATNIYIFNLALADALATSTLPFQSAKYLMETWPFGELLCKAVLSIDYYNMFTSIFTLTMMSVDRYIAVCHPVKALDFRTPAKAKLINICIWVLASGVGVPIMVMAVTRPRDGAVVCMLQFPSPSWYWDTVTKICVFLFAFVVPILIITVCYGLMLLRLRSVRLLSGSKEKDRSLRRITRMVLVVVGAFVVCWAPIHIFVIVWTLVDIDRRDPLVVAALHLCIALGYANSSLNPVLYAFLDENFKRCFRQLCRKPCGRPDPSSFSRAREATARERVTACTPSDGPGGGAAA
Chain of Kappa-type opioid receptor (Homo sapiens) (P41145 whole entry, the tested form may be a part): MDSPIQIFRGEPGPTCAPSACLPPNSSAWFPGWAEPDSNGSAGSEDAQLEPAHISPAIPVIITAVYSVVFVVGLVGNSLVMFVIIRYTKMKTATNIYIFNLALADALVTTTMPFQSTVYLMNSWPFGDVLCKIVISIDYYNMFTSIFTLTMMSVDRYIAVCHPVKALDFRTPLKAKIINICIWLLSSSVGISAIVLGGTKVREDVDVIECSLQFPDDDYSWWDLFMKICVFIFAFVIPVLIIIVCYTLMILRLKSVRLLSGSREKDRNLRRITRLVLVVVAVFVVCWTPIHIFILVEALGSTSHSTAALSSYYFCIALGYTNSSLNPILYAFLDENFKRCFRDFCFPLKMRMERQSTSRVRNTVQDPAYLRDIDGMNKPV

`Cc1cc2n(n1)C1(CCN(C(=O)c3ccc(Cl)cc3)CC1)CC(=O)N2CC1CC1` was tested, and the Activity [1] was “inactive”, the Activity [2] was “inactive” and the Activity ([3]; filed as partial agonist) was “Dose-Dependent Effect”.

`CCO[C@@]12Cc3c([nH]c4ccccc34)[C@]3(C)Oc4c(O)ccc5c4[C@@]31CCN(CC1CC1)C2C5` was tested, and the Activity [2] was “Active”.

For `Cc1cc2n(n1)C1(CCN(C(=O)c3ccncc3)CC1)CC(=O)N2CC1CC1`, the Activity [4] was “inactive”.

For `Cc1cc2n(n1)C1(CCN(C(=O)c3cccc(F)c3)CC1)CC(=O)N2CC1CC1`, the Ratio Ki [5] was 6, the Activity [1] was “inactive” and the Activity [2] was “inactive”. The Activity ([3]; filed as agonist) was “Dose-Dependent Effect”.
